In brackets after ≈: the same amount, converted by molar mass.
Columns and labels:
Assay type in all cases: functional
Candida albicans = assay: Antifungal activity against Candida albicans ATCC 7754 after 72 hrs by agar dilution method; settings: ATCC 7754, 72 h
[1] = Antifungal activity against Saccharomyces cerevisiae SH20 after 72 hrs by agar dilution method
Aspergillus niger = assay: Antifungal activity against Aspergillus niger 439 after 72 hrs by agar dilution method; settings: Aspergillus niger, 439, 72 h
Klebsiella aerogenes = assay: Antibacterial activity against Enterobacter aerogenes ATCC 13048 after 18 to 20 hrs by two-fold microbroth dilution method
Pseudomonas aeruginosa = assay: Antibacterial activity against Pseudomonas aeruginosa […] after 18 to 20 hrs by two-fold microbroth dilution method
Staphylococcus aureus [2] = assay: Antibacterial activity against methicillin-resistant Staphylococcus aureus 198-2 after 18 to 20 hrs by two-fold microbroth dilution method
Rattus norvegicus [3] = assay: (§1) Antioxidant activity in CCL4-intoxicated Wistar albino rat assessed as liver cytosolic glutathione peroxidase activity per mg protein at 100 mg/kg, ip administered for 7 consecutive days after DL-alpha-tocopherol acetate treatment followed by CCL4 dosing measured after 24 hrs by H2O2 based spectrophotometric analysis (reference value: 0.28 +/- 0.01 U)
Staphylococcus aureus [4] = assay: Antibacterial activity against methicillin-resistant Staphylococcus aureus 198-3 after 18 to 20 hrs by two-fold microbroth dilution method
[5] = test system: Staphylococcus epidermidis; assay: Antibacterial activity against Staphylococcus epidermidis ATCC 12228 after 18 to 20 hrs by two-fold microbroth dilution method
[6] = Antifungal activity against Fusarium oxysporum M42 after 72 hrs by agar dilution method
Rattus norvegicus [7] = assay: as §1, with “superoxide dismutase” for “glutathione peroxidase”, “xanthine” for “H2O2”, “assay” for “spectrophotometric analysis”, “5.27” for “0.28”, “0.22” for “0.01”
Staphylococcus aureus [8] = assay: Antibacterial activity against Staphylococcus aureus ATCC 11632 after 18 to 20 hrs by two-fold microbroth dilution method
Escherichia coli = assay: Antibacterial activity against Escherichia coli ATCC 25922 after 18 to 20 hrs by two-fold microbroth dilution method
Rattus norvegicus [9] = assay: as §1, with “catalase” for “glutathione peroxidase”, “assay” for “spectrophotometric analysis”, “220.15” for “0.28”, “11.43” for “0.01”
Staphylococcus aureus [10] = assay: Antibacterial activity against methicillin-resistant Staphylococcus aureus 198-1 after 18 to 20 hrs by two-fold microbroth dilution method
Bacillus subtilis = assay: Antibacterial activity against Bacillus subtilis ATCC 11774 after 18 to 20 hrs by two-fold microbroth dilution method
Klebsiella pneumoniae = assay: Antibacterial activity against Klebsiella pneumoniae ATCC 4352 after 18 to 20 hrs by two-fold microbroth dilution method

Row | Structure (SMILES) | MIC (Candida albicans) [µM] | MIC [1] [µM] | MIC (Aspergillus niger) [µM] | MIC (Klebsiella aerogenes) [µM] | MIC (Pseudomonas aeruginosa) [µM] | MIC (Staphylococcus aureus [2]) [µM] | Activity (Rattus norvegicus [3]) [U] | MIC (Staphylococcus aureus [4]) [µM] | MIC [5] [µM] | MIC [6] [µM] | Activity (Rattus norvegicus [7]) [U] | MIC (Staphylococcus aureus [8]) [µM] | MIC (Escherichia coli) [µM] | Activity (Rattus norvegicus [9]) [U] | MIC (Staphylococcus aureus [10]) [µM] | MIC (Bacillus subtilis) [µM] | MIC (Klebsiella pneumoniae) [µM]
1 | CC(=O)OC[C@H]1O[C@@H](NC(=S)N/N=C2/C(=O)Nc3ccccc32)[C@H](OC(C)=O)[C@@H](OC(C)=O)[C@@H]1OC(C)=O | 200 (≈ 110 µg/mL) | 100 (≈ 55.1 µg/mL) | 100 (≈ 55.1 µg/mL) | 50 (≈ 27.5 µg/mL) | 50 (≈ 27.5 µg/mL) | 200 (≈ 110 µg/mL) | 1.77 | 200 (≈ 110 µg/mL) | 100 (≈ 55.1 µg/mL) | 100 (≈ 55.1 µg/mL) | 5.81 | 200 (≈ 110 µg/mL) | 50 (≈ 27.5 µg/mL) | 295.32 | 200 (≈ 110 µg/mL) | 100 (≈ 55.1 µg/mL) | 50 (≈ 27.5 µg/mL)
2 | CC(=O)OC[C@H]1O[C@@H](NC(=S)N/N=C2/C(=O)N(CC(C)C)c3ccccc32)[C@H](OC(C)=O)[C@@H](OC(C)=O)[C@@H]1OC(C)=O | 100 (≈ 60.7 µg/mL) | 100 (≈ 60.7 µg/mL) | 100 (≈ 60.7 µg/mL) | 12.5 (≈ 7.58 µg/mL) | 12.5 (≈ 7.58 µg/mL) | 100 (≈ 60.7 µg/mL) | 0.91 | 100 (≈ 60.7 µg/mL) | 100 (≈ 60.7 µg/mL) | 100 (≈ 60.7 µg/mL) | 9.88 | 100 (≈ 60.7 µg/mL) | 12.5 (≈ 7.58 µg/mL) | 375.45 | 100 (≈ 60.7 µg/mL) | 100 (≈ 60.7 µg/mL) | 12.5 (≈ 7.58 µg/mL)
3 | C=CCN1C(=O)/C(=N/NC(=S)N[C@@H]2O[C@H](COC(C)=O)[C@@H](OC(C)=O)[C@H](OC(C)=O)[C@H]2OC(C)=O)c2ccccc21 | 100 (≈ 59.1 µg/mL) | 100 (≈ 59.1 µg/mL) | 200 (≈ 118 µg/mL) | 100 (≈ 59.1 µg/mL) | 100 (≈ 59.1 µg/mL) | 200 (≈ 118 µg/mL) | 0.27 | 200 (≈ 118 µg/mL) | 200 (≈ 118 µg/mL) | 200 (≈ 118 µg/mL) | 9.91 | 200 (≈ 118 µg/mL) | 100 (≈ 59.1 µg/mL) | 357.47 | 200 (≈ 118 µg/mL) | 200 (≈ 118 µg/mL) | 100 (≈ 59.1 µg/mL)
4 | CC(=O)OC[C@H]1O[C@@H](NC(=S)N/N=C2/C(=O)Nc3ccc(C)cc32)[C@H](OC(C)=O)[C@@H](OC(C)=O)[C@@H]1OC(C)=O | 100 (≈ 56.5 µg/mL) | 25 (≈ 14.1 µg/mL) | 100 (≈ 56.5 µg/mL) | 25 (≈ 14.1 µg/mL) | 25 (≈ 14.1 µg/mL) | 12.5 (≈ 7.06 µg/mL) | 1.7 | 12.5 (≈ 7.06 µg/mL) | 12.5 (≈ 7.06 µg/mL) | 100 (≈ 56.5 µg/mL) | 5.91 | 12.5 (≈ 7.06 µg/mL) | 25 (≈ 14.1 µg/mL) | 258.47 | 12.5 (≈ 7.06 µg/mL) | 25 (≈ 14.1 µg/mL) | 25 (≈ 14.1 µg/mL)
5 | CC(=O)OC[C@H]1O[C@@H](NC(=S)N/N=C2/C(=O)N(CCc3ccccc3)c3ccccc32)[C@H](OC(C)=O)[C@@H](OC(C)=O)[C@@H]1OC(C)=O | 400 (≈ 262 µg/mL) | 400 (≈ 262 µg/mL) | 200 (≈ 131 µg/mL) | 100 (≈ 65.5 µg/mL) | 100 (≈ 65.5 µg/mL) | 200 (≈ 131 µg/mL) | 1.73 | 200 (≈ 131 µg/mL) | 200 (≈ 131 µg/mL) | 200 (≈ 131 µg/mL) | 8.45 | 200 (≈ 131 µg/mL) | 100 (≈ 65.5 µg/mL) | 260.61 | 200 (≈ 131 µg/mL) | 200 (≈ 131 µg/mL) | 100 (≈ 65.5 µg/mL)
6 | CC(=O)OC[C@H]1O[C@@H](NC(=S)N/N=C2/C(=O)Nc3ccc([N+](=O)[O-])cc32)[C@H](OC(C)=O)[C@@H](OC(C)=O)[C@@H]1OC(C)=O | 100 (≈ 59.6 µg/mL) | 100 (≈ 59.6 µg/mL) | 100 (≈ 59.6 µg/mL) | 50 (≈ 29.8 µg/mL) | 50 (≈ 29.8 µg/mL) | 200 (≈ 119 µg/mL) | 1.89 | 200 (≈ 119 µg/mL) | 100 (≈ 59.6 µg/mL) | 100 (≈ 59.6 µg/mL) | 6.45 | 200 (≈ 119 µg/mL) | 50 (≈ 29.8 µg/mL) | 283.53 | 200 (≈ 119 µg/mL) | 100 (≈ 59.6 µg/mL) | 50 (≈ 29.8 µg/mL)
7 | CC(=O)OC[C@H]1O[C@@H](NC(=S)N/N=C2/C(=O)Nc3ccc(C(C)C)cc32)[C@H](OC(C)=O)[C@@H](OC(C)=O)[C@@H]1OC(C)=O | 100 (≈ 59.3 µg/mL) | 50 (≈ 29.6 µg/mL) | 100 (≈ 59.3 µg/mL) | 50 (≈ 29.6 µg/mL) | 25 (≈ 14.8 µg/mL) | 12.5 (≈ 7.41 µg/mL) | 1.75 | 12.5 (≈ 7.41 µg/mL) | 12.5 (≈ 7.41 µg/mL) | 25 (≈ 14.8 µg/mL) | 5.82 | 12.5 (≈ 7.41 µg/mL) | 50 (≈ 29.6 µg/mL) | 260.61 | 12.5 (≈ 7.41 µg/mL) | 25 (≈ 14.8 µg/mL) | 25 (≈ 14.8 µg/mL)

From ChEMBL document CHEMBL3872214, “Synthesis and evaluation of in vivo antioxidant, in vitro antibacterial, MRSA and antifungal activity of novel substituted isatin N-(2,3,4,6-tetra-O-acetyl-β-d-glucopyranosyl)thiosemicarbazones” (Eur J Med Chem, 2016)
